Test results: ChEMBL document CHEMBL1201862, “PubChem BioAssay data set” (2004)
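The compound was tested at five concentrations on cells cultured in 96-well plates, with a 48-hour exposure period. The concentration for 50% growth inhibition is given as GI50.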 The source made the active and inactive calls. No stated cut-off is given here; in the data, active = GI50 up to about 1.1 µM and inactive = higher.

Tests used:
Assay in all cases: NCI tumour cell line growth inhibition, 48 h
T47D = system: T47D
UACC-257 = system: UACC-257
RPMI-8226 = system: RPMI-8226
M14 = system: M14
A549 = system: A549
ACHN = system: ACHN
OVCAR-8 = system: OVCAR-8
NCI/ADR-RES = system: NCI/ADR-RES
SNB-75 = system: SNB-75
Malme-3M = system: Malme-3M
HCT-116 = system: HCT-116
A498 = system: A498
UO-31 = system: UO-31
U-251 = system: U-251
HOP-62 = system: HOP-62
DU-145 = system: DU-145
MDA-MB-435 = system: MDA-MB-435
MDA-N = system: MDA-N
RXF 393 = system: RXF 393
HL-60 = system: HL-60

Measured: GI50

CN(C(=O)Cc1ccccc1)n1cnn(CC(=O)OC(C)(C)C)c1=S
inactive: T47D > 10 µM | UACC-257 > 10 µM | RPMI-8226 > 10 µM | M14 > 10 µM | A549 > 10 µM | ACHN > 10 µM | OVCAR-8 > 10 µM | NCI/ADR-RES > 10 µM | SNB-75 > 10 µM | Malme-3M > 10 µM | HCT-116 > 10 µM | A498 > 10 µM | UO-31 > 10 µM | U-251 > 10 µM | HOP-62 > 10 µM | DU-145 > 10 µM | MDA-MB-435 > 10 µM | MDA-N > 10 µM

CC1(C)Oc2ccc3c(=O)c(-c4ccccc4)c(-c4ccccc4)oc3c2C1C(=O)O (stereo not drawn)
inactive: T47D > 100 µM | UACC-257 > 100 µM | M14 > 100 µM | A549 > 100 µM | OVCAR-8 > 100 µM | NCI/ADR-RES > 100 µM | RXF 393 > 100 µM | Malme-3M > 100 µM | HCT-116 > 100 µM | A498 > 100 µM | U-251 > 100 µM | HOP-62 > 100 µM | DU-145 > 100 µM | MDA-MB-435 > 100 µM | MDA-N > 100 µM

c1cncc(CNc2ncn[nH]2)c1
inactive: T47D > 100 µM | UACC-257 > 100 µM | RPMI-8226 > 100 µM | M14 > 100 µM | A549 > 100 µM | ACHN > 100 µM | OVCAR-8 > 100 µM | NCI/ADR-RES > 100 µM | RXF 393 > 100 µM | SNB-75 > 100 µM | Malme-3M > 100 µM | HCT-116 > 100 µM | A498 > 100 µM | UO-31 > 100 µM | U-251 > 100 µM | HOP-62 > 100 µM | DU-145 > 100 µM | MDA-MB-435 > 100 µM | MDA-N > 100 µM

CCOC(=O)c1[nH]c2nc(SC)nc(Nc3ccccc3Cl)c2c1N
inactive: T47D 13.1 µM | UACC-257 33.6 µM | RPMI-8226 15.2 µM | M14 37.8 µM | A549 13.2 µM | ACHN 18.3 µM | OVCAR-8 16 µM | NCI/ADR-RES 18.8 µM | RXF 393 12.4 µM | SNB-75 16.2 µM | Malme-3M 24.3 µM | HCT-116 15.6 µM | A498 12.6 µM | UO-31 15.7 µM | U-251 13.9 µM | HOP-62 18.3 µM | DU-145 23.2 µM | MDA-MB-435 31.6 µM | MDA-N 30.5 µM

Cn1c(-c2cccs2)cc(-c2ccsc2)c1-c1ccsc1
inactive: T47D 1.81 µM | UACC-257 > 100 µM | M14 > 100 µM | A549 > 100 µM | ACHN > 100 µM | OVCAR-8 > 100 µM | NCI/ADR-RES > 100 µM | RXF 393 > 100 µM | SNB-75 > 100 µM | Malme-3M > 100 µM | HCT-116 64.1 µM | A498 > 100 µM | UO-31 > 100 µM | U-251 > 100 µM | HOP-62 > 100 µM | DU-145 > 100 µM | MDA-MB-435 > 100 µM | MDA-N > 100 µM

C[C@H](C/C=C/C(C)(C)O)[C@H]1CC[C@@]2(C)[C@@H]3CC[C@H]4C(C)(C)[C@@H](O)CC[C@@]45C[C@@]35CC[C@]12C
inactive: T47D 27 µM | UACC-257 17.9 µM | RPMI-8226 15.8 µM | M14 17.8 µM | A549 14.7 µM | ACHN 6.35 µM | OVCAR-8 14.8 µM | NCI/ADR-RES 5.14 µM | SNB-75 20.3 µM | HCT-116 18.2 µM | A498 21 µM | UO-31 23.3 µM | U-251 17.4 µM | HOP-62 13.6 µM | DU-145 15.4 µM | MDA-MB-435 20.5 µM | MDA-N 34.1 µM

CC1CN=C(N(C(=O)Nc2ccccc2)c2ccc(Cl)c(Cl)c2)S1 (stereo not drawn)
inactive: T47D 14.4 µM | UACC-257 32.2 µM | RPMI-8226 41.3 µM | M14 38.7 µM | A549 25.9 µM | ACHN 31.6 µM | OVCAR-8 35.6 µM | NCI/ADR-RES 20.7 µM | SNB-75 > 100 µM | Malme-3M 38 µM | HCT-116 23.1 µM | A498 14.3 µM | UO-31 24.8 µM | U-251 > 10 µM | HOP-62 97.3 µM | DU-145 45.8 µM | HL-60 30.3 µM | MDA-N > 10 µM

CC[S+]([O-])C(=O)N(O)c1ccc(Cl)cc1 (stereo not drawn)
inactive: T47D 31.3 µM | UACC-257 23.2 µM | RPMI-8226 1.24 µM | M14 12.8 µM | A549 67.3 µM | ACHN 11.1 µM | NCI/ADR-RES 24.9 µM | RXF 393 19.7 µM | SNB-75 32.1 µM | HCT-116 24.4 µM | A498 56.4 µM | UO-31 14.5 µM | U-251 19.4 µM | HOP-62 > 100 µM | DU-145 > 100 µM | MDA-MB-435 15 µM | MDA-N 20 µM

Cc1n[nH]c(=O)n1N1C(=O)CCCC1=O
inactive: T47D > 100 µM | UACC-257 > 100 µM | M14 > 100 µM | A549 > 100 µM | OVCAR-8 > 100 µM | NCI/ADR-RES > 100 µM | RXF 393 > 100 µM | SNB-75 > 100 µM | Malme-3M > 100 µM | HCT-116 > 100 µM | A498 > 100 µM | U-251 > 100 µM | HOP-62 > 100 µM | DU-145 > 100 µM | MDA-MB-435 > 100 µM | MDA-N > 100 µM

COc1ccc2c(c1O)C13CCN(C)C(C2)C1CCC1(C3)OCCO1 (stereo not drawn)
inactive: T47D > 100 µM | UACC-257 > 100 µM | RPMI-8226 > 100 µM | M14 > 100 µM | A549 > 100 µM | ACHN > 100 µM | OVCAR-8 > 100 µM | NCI/ADR-RES > 100 µM | RXF 393 > 100 µM | SNB-75 > 100 µM | Malme-3M > 100 µM | HCT-116 > 100 µM | UO-31 > 100 µM | U-251 > 100 µM | HOP-62 > 100 µM | DU-145 > 100 µM | MDA-MB-435 > 100 µM | MDA-N > 100 µM

CC1(C)OCC2OC3([C@H](O)CCO)OC(C)(C)OC3C2O1 (stereo partly drawn)
inactive: T47D > 100 µM | UACC-257 > 100 µM | RPMI-8226 > 100 µM | M14 > 100 µM | A549 > 100 µM | ACHN > 100 µM | OVCAR-8 > 100 µM | NCI/ADR-RES > 100 µM | RXF 393 > 100 µM | SNB-75 > 100 µM | HCT-116 > 100 µM | A498 > 100 µM | UO-31 > 100 µM | U-251 > 100 µM | HOP-62 > 100 µM | DU-145 > 100 µM | MDA-MB-435 > 100 µM | MDA-N > 100 µM
